In ChEMBL document CHEMBL4024712, “Synthesis, stability and mechanistic studies of potent anticryptococcal hexapeptides” (Eur J Med Chem, 2017):
Values after ≈ are worked out from the molar mass of the structure shown. Non-standard residues stand in square brackets, D forms with d. Residues, ends and D or L forms follow the SMILES beside them. His(τ-Bzl) = N[C@@H](Cc1cn(Cc2ccccc2)cn1)C(=O)O; Phe(4-Me) = Cc1ccc(C[C@H](N)C(=O)O)cc1; 1Nal = N[C@@H](Cc1cccc2ccccc12)C(=O)O; Cha = N[C@@H](CC1CCCCC1)C(=O)O; Phg = N[C@H](C(=O)O)c1ccccc1; Orn = NCCC[C@H](N)C(=O)O; Dab = NCC[C@H](N)C(=O)O

How the values were obtained:
[1] = system: Cryptococcus neoformans; experiment: Fungicidal activity against Cryptococcus neoformans ATCC 90113 after 68 to 72 hrs by Alamar blue assay; assay type: functional
[2] = system: Staphylococcus aureus; experiment: Bactericidal activity against methicillin-resistant Staphylococcus aureus ATCC 33591 by CLSI method; assay type: functional
[3] = system: Staphylococcus aureus; experiment: Anti-bacterial activity against Staphylococcus aureus ATCC 29213 by CLSI method; assay type: functional; settings: Staphylococcus aureus, ATCC 29213
[4] = system: Staphylococcus aureus; experiment: Bactericidal activity against Staphylococcus aureus ATCC 29213 by CLSI method; assay type: functional
[5] = system: Candida albicans; experiment: Antifungal activity against Candida albicans ATCC 90028 after 18 to 24 hrs by Alamar blue assay; assay type: functional; settings: for MIC: Candida albicans, ATCC 90028
[6] = system: Nakaseomyces glabratus; experiment: Antifungal activity against Candida glabrata ATCC 90030 after 18 to 24 hrs by Alamar blue assay; assay type: functional
[7] = system: Pichia kudriavzevii; experiment: Fungicidal activity against Candida krusei ATCC 6258 after 18 to 24 hrs by Alamar blue assay; assay type: functional
[8] = system: Aspergillus fumigatus; experiment: Antifungal activity against Aspergillus fumigatus ATCC 90906 after 68 to 72 hrs by Alamar blue assay; assay type: functional
[9] = system: Mycobacterium intracellulare; experiment: Anti-bacterial activity against Mycobacterium intracellulare ATCC 23068 after 68 to 72 hrs by Alamar blue assay; assay type: functional, cell-based; settings: for MIC: Mycobacterium intracellulare, ATCC 23068
[10] = system: Escherichia coli; experiment: Anti-bacterial activity against Escherichia coli ATCC 35218 by CLSI method; assay type: functional; settings: for MIC: Escherichia coli, ATCC 35218
[11] = system: Escherichia coli; experiment: Bactericidal activity against Escherichia coli ATCC 35218 by CLSI method; assay type: functional
[12] = system: Pseudomonas aeruginosa; experiment: Anti-bacterial activity against Pseudomonas aeruginosa ATCC 27853 by CLSI method; assay type: functional
[13] = system: Vero; experiment: Cytotoxicity against African green monkey Vero cells up to 10 ug/ml after 48 hrs by neutral red dye based assay; assay type: cell-based; settings: chlorocebus sabaeus
[14] = system: Pichia kudriavzevii; experiment: Antifungal activity against Candida krusei ATCC 6258 after 18 to 24 hrs by Alamar blue assay; assay type: functional; settings: Pichia kudriavzevii, ATCC 6258
[15] = system: Cryptococcus neoformans; experiment: Antifungal activity against Cryptococcus neoformans ATCC 90113 after 68 to 72 hrs by Alamar blue assay; assay type: functional
[16] = system: Mycobacterium intracellulare; experiment: Bactericidal activity against Mycobacterium intracellulare ATCC 23068 after 68 to 72 hrs by Alamar blue assay; assay type: functional
[17] = system: Staphylococcus aureus; experiment: Anti-bacterial activity against methicillin-resistant Staphylococcus aureus ATCC 33591 by CLSI method; assay type: functional; settings: Staphylococcus aureus, ATCC 33591
[18] = system: Candida albicans; experiment: Fungicidal activity against Candida albicans ATCC 90028 after 18 to 24 hrs by Alamar blue assay; assay type: functional

| Compound | MBC [2] | MIC [3] | MBC [4] | IC50 [5] | IC50 [6] | MFC [7] | IC50 [8] | IC50 [12] | Activity [13] | MIC [14] | MIC [15] | IC50 [10] | MIC [9] | MBC [16] | MIC [5] | other results |
| --- | --- | --- | --- | --- | --- | --- | --- | --- | --- | --- | --- | --- | --- | --- | --- | --- |
| Cc1ccc(C[C@H](NC(=O)[C@@H](Cc2ccccc2)NC(=O)[C@@H](Cc2c[nH]c3ccccc23)NC(=O)[C@@H](N)CCN)C(=O)N[C@H](Cc2ccccc2)C(=O)N[C@@H](Cc2cn(Cc3ccccc3)cn2)C(N)=O)cc1 (H-[Dab][dW][dF][Phe(4-Me)][dF][His(τ-Bzl)]-NH2) | 20 µg/mL (≈ 20.3 µM) | 20 µg/mL (≈ 20.3 µM) | 20 µg/mL (≈ 20.3 µM) | – | – | – | – | – | – | – | – | – | – | – | – | MFC [1]: 1.25 µg/mL (≈ 1.27 µM) |
| CC[C@H](C)[C@H](NC(=O)[C@H](CC1CCCCC1)NC(=O)[C@H](CC1CCCCC1)NC(=O)[C@@H](N)CCCN)C(=O)N[C@H](Cc1ccccc1)C(=O)N[C@@H](Cc1cn(Cc2ccccc2)cn1)C(N)=O (H-[Orn][Cha][Cha]I[dF][His(τ-Bzl)]-NH2) | – | – | – | Not Active | Not Active | 20 µg/mL (≈ 21.6 µM) | Not Active | Not Active | Non-Toxic | – | – | – | – | – | – | IC50 [9]: Not Active; MIC [10]: 20 µg/mL (≈ 21.6 µM); MBC [11]: 20 µg/mL (≈ 21.6 µM) |
| CC[C@H](C)[C@H](NC(=O)[C@H](CC1CCCCC1)NC(=O)[C@@H](Cc1c[nH]c2ccccc12)NC(=O)[C@@H](N)CCCN)C(=O)N[C@@H](Cc1cccc2ccccc12)C(=O)N[C@@H](Cc1cn(Cc2ccccc2)cn1)C(N)=O (H-[Orn][dW][Cha]I[1Nal][His(τ-Bzl)]-NH2) | 10 µg/mL (≈ 9.92 µM) | 20 µg/mL (≈ 19.8 µM) | 20 µg/mL (≈ 19.8 µM) | Not Active | Not Active | – | Not Active | Not Active | Non-Toxic | 10 µg/mL (≈ 9.92 µM) | 1.25 µg/mL (≈ 1.24 µM) | Not Active | – | – | – | IC50 [9]: Not Active |
| CC(C)C[C@H](NC(=O)[C@H](CC1CCCCC1)NC(=O)[C@@H](Cc1c[nH]c2ccccc12)NC(=O)[C@@H](N)CCCN)C(=O)N[C@H](Cc1ccccc1)C(=O)N[C@@H](Cc1cn(Cc2ccccc2)cn1)C(N)=O (H-[Orn][dW][Cha]L[dF][His(τ-Bzl)]-NH2) | – | – | 20 µg/mL (≈ 20.9 µM) | Not Active | Not Active | 20 µg/mL (≈ 20.9 µM) | Not Active | Not Active | Non-Toxic | 20 µg/mL (≈ 20.9 µM) | 5 µg/mL (≈ 5.22 µM) | Not Active | 20 µg/mL (≈ 20.9 µM) | 20 µg/mL (≈ 20.9 µM) | – | – |
| NCCC[C@H](N)C(=O)N[C@H](Cc1c[nH]c2ccccc12)C(=O)N[C@@H](CC1CCCCC1)C(=O)N[C@H](C(=O)N[C@H](Cc1ccccc1)C(=O)N[C@@H](Cc1cn(Cc2ccccc2)cn1)C(N)=O)c1ccccc1 (H-[Orn][dW][Cha][Phg][dF][His(τ-Bzl)]-NH2) | 20 µg/mL (≈ 20.4 µM) | 20 µg/mL (≈ 20.4 µM) | 20 µg/mL (≈ 20.4 µM) | – | Not Active | 10 µg/mL (≈ 10.2 µM) | Not Active | Not Active | Non-Toxic | 10 µg/mL (≈ 10.2 µM) | – | – | – | 10 µg/mL (≈ 10.2 µM) | 20 µg/mL (≈ 20.4 µM) | MIC [17]: 20 µg/mL (≈ 20.4 µM) |
| CC[C@@H](C)[C@@H](NC(=O)[C@H](CC1CCCCC1)NC(=O)[C@@H](Cc1c[nH]c2ccccc12)NC(=O)[C@@H](N)CCCN)C(=O)N[C@H](Cc1ccccc1)C(=O)N[C@@H](Cc1cn(Cc2ccccc2)cn1)C(N)=O (H-[Orn][dW][Cha][dI][dF][His(τ-Bzl)]-NH2) | – | 20 µg/mL (≈ 20.9 µM) | 20 µg/mL (≈ 20.9 µM) | – | – | 10 µg/mL (≈ 10.4 µM) | – | – | – | 10 µg/mL (≈ 10.4 µM) | – | – | 20 µg/mL (≈ 20.9 µM) | 20 µg/mL (≈ 20.9 µM) | 20 µg/mL (≈ 20.9 µM) | MFC [1]: 2.5 µg/mL (≈ 2.61 µM); MIC [10]: 20 µg/mL (≈ 20.9 µM); MBC [11]: 20 µg/mL (≈ 20.9 µM) |
| CC(C)[C@@H](NC(=O)[C@H](CC1CCCCC1)NC(=O)[C@@H](Cc1c[nH]c2ccccc12)NC(=O)[C@@H](N)CCCN)C(=O)N[C@H](Cc1ccccc1)C(=O)N[C@@H](Cc1cn(Cc2ccccc2)cn1)C(N)=O (H-[Orn][dW][Cha][dV][dF][His(τ-Bzl)]-NH2) | – | – | – | – | Not Active | 20 µg/mL (≈ 21.2 µM) | Not Active | Not Active | Non-Toxic | 20 µg/mL (≈ 21.2 µM) | 1.25 µg/mL (≈ 1.32 µM) | Not Active | 20 µg/mL (≈ 21.2 µM) | – | 20 µg/mL (≈ 21.2 µM) | MFC [18]: 20 µg/mL (≈ 21.2 µM) |
